# Molecular target: human FLAP (Homo sapiens (Human), UniProt P20292)
# Assay: FLAP binding assay (HTRF format)
# Details: human FLAP wild type membranes, HTRF format; Table 6 (additional runs)
# Experimental: The ability of the compounds of the present invention to treat a FLAP-mediated disease and/or disorder, or associated symptoms or complications thereof, was determined using the following procedures. Binding assay data represent the average value obtained from two different assay plates, with samples run in duplicate on each plate. Human whole blood assay data represent a single replicate on an assay plate using whole blood from at least one healthy donor.
# Data are expressed as a HTRF ratio.
# Chain of human FLAP (P20292 whole entry): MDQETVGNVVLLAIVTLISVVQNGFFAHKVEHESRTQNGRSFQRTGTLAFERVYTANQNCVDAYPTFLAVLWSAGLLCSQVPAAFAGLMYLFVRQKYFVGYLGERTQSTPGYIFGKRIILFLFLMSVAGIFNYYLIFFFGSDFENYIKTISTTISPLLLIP
row,Structure (SMILES),Ki [nM]
1,"Nc1cnc(-c2ccc(C3CCC3)c(OCC3CCCNC3)c2F)cn1 (racemic) [Example 299, racemic 5-[4-Cyclobutyl-2-fluoro-3-(piperidin-3-ylmethoxy)phenyl]pyrazin-2-amine]",1960
2,"COc1c(C2CCC2)ccc(-c2cnc(N)cn2)c1F [A, 5-(4-Cyclobutyl-2-fluoro-3-methoxyphenyl)pyrazin-2-amine]",52.6
3,"Nc1cnc(-c2ccc(C3CCC3)c(O)c2F)cn1 [B, 3-(5-Aminopyrazin-2-yl)-6-cyclobutyl-2-fluorophenol]",83.9
4,"Nc1cnc(-c2ccc(C3CCC3)c(OCc3ccc(C(F)(F)F)cc3)c2F)cn1 [Compound 1, 5-(4-Cyclobutyl-2-fluoro-3-{[4-(trifluoromethyl)benzyl]oxy}phenyl)pyrazin-2-amine]",62.8
5,"Nc1cnc(-c2ccc(C3CCC3)c(OCc3ccccc3C(F)(F)F)c2F)cn1 [Compound 3, 5-(4-Cyclobutyl-2-fluoro-3-{[2-(trifluoromethyl)benzyl]oxy}phenyl)pyrazin-2-amine]",118
6,"CC(=O)c1ccc(COc2c(C3CCC3)ccc(-c3cnc(N)cn3)c2F)cc1 [Compound 12, 1-(4-{[3-(5-Aminopyrazin-2-yl)-6-cyclobutyl-2-fluorophenoxy]methyl}phenyl)ethanone]",~89.9
7,"Nc1cnc(-c2ccc(C3CCC3)c(OCc3cccnc3)c2F)cn1 [Compound 13, 5-[4-Cyclobutyl-2-fluoro-3-(pyridin-3-ylmethoxy)phenyl]pyrazin-2-amine]",27.1
8,"Nc1cnc(-c2ccc(C3CCC3)c(OCc3ccncc3)c2F)cn1 [Compound 14, 5-[4-Cyclobutyl-2-fluoro-3-(pyridin-4-ylmethoxy)phenyl]pyrazin-2-amine]",22.6
9,"N#Cc1cccc(COc2c(C3CCC3)ccc(-c3cnc(N)cn3)c2F)c1 [Compound 16, 3-{[3-(5-Aminopyrazin-2-yl)-6-cyclobutyl-2-fluorophenoxy]methyl}benzonitrile]",19.9
10,"N#Cc1ccccc1COc1c(C2CCC2)ccc(-c2cnc(N)cn2)c1F [Compound 18, 2-{[3-(5-Aminopyrazin-2-yl)-6-cyclobutyl-2-fluorophenoxy]methyl}benzonitrile]",59
11,"Nc1cnc(-c2ccc(C3CCC3)c(OCc3ccccn3)c2F)cn1 [Compound 24, 5-[4-Cyclobutyl-2-fluoro-3-(pyridin-2-ylmethoxy)phenyl]pyrazin-2-amine]",16.2
12,"Nc1cnc(-c2ccc(C3CCC3)c(OCc3ccc(F)cc3)c2F)cn1 [Compound 28, 5-{4-Cyclobutyl-2-fluoro-3-[(4-fluorobenzyl)oxy]phenyl}pyrazin-2-amine]",66.2
13,"Nc1cnc(-c2ccc(C3CCC3)c(OCc3cccc(F)c3)c2F)cn1 [Compound 29, 5-{4-Cyclobutyl-2-fluoro-3-[(3-fluorobenzyl)oxy]phenyl}pyrazin-2-amine]",24.6
14,"Nc1cnc(-c2ccc(C3CCC3)c(OCc3ccccc3F)c2F)cn1 [Compound 30, 5-{4-Cyclobutyl-2-fluoro-3-[(2-fluorobenzyl)oxy]phenyl}pyrazin-2-amine]",33.5
15,"Nc1cnc(-c2ccc(C3CCC3)c(OCc3ccc(F)c(F)c3)c2F)cn1 [Compound 33, 5-{4-Cyclobutyl-3-[(3,4-difluorobenzyl)oxy]-2-fluorophenyl}pyrazin-2-amine]",~250
16,"Nc1cnc(-c2ccc(C3CCC3)c(OCc3cc(Cl)ccc3Cl)c2F)cn1 [Compound 38, 5-{4-Cyclobutyl-3-[(2,5-dichlorobenzyl)oxy]-2-fluorophenyl}pyrazin-2-amine]",~250
17,"CC(C)(C)OC(=O)COc1c(C2CCC2)ccc(-c2cnc(N)cn2)c1F [Example 49, tert-Butyl [3-(5-aminopyrazin-2-yl)-6-cyclobutyl-2-fluorophenoxy]acetate]",~134
18,"Nc1cnc(-c2ccc(C3CCC3)c(OCC(=O)O)c2F)cn1 [Example 50, [3-(5-Aminopyrazin-2-yl)-6-cyclobutyl-2-fluorophenoxy]acetic acid]",787
19,"CS(=O)(=O)N1CCC(COc2c(C3CCC3)ccc(-c3cnc(N)cn3)c2F)CC1 [Example 68, 5-(4-Cyclobutyl-2-fluoro-3-{[1-(methylsulfonyl)piperidin-4-yl]methoxy}phenyl)pyrazin-2-amine]",136
20,"Cc1nc(COc2c(C3CCC3)ccc(-c3cnc(N)cn3)c2F)no1 [Example 70, 5-{4-Cyclobutyl-2-fluoro-3-[(5-methyl-1,2,4-oxadiazol-3-yl)methoxy]phenyl}pyrazin-2-amine]",34.2
21,"Nc1cnc(-c2ccc(C3CCC3)c(OCC3CCCCC3)c2F)cn1 [Example 71, 5-[4-Cyclobutyl-3-(cyclohexylmethoxy)-2-fluorophenyl]pyrazin-2-amine]",421
22,"Nc1cnc(-c2ccc(C3CCC3)c(OCC3CC3)c2F)cn1 [Example 72, 5-[4-Cyclobutyl-3-(cyclopropylmethoxy)-2-fluorophenyl]pyrazin-2-amine]",23.7

# The next compounds have a lower Ki than those just listed; values first:
row,Ki [nM],Structure (SMILES)
1,14,"Cc1ccnc(Oc2c(C3CCC3)ccc(-c3cnc(N)cn3)c2F)n1 [Example 69, 5-{4-Cyclobutyl-2-fluoro-3-[(4-methylpyrimidin-2-yl)oxy]phenyl}pyrazin-2-amine]"
2,13.6,"CS(=O)(=O)c1cccc(COc2c(C3CCC3)ccc(-c3cnc(N)cn3)c2F)c1 [Compound 6, 5-(4-Cyclobutyl-2-fluoro-3-{[3-(methylsulfonyl)benzyl]oxy}phenyl)pyrazin-2-amine]"
3,12.5,"NC(=O)c1cccc(COc2c(C3CCC3)ccc(-c3cnc(N)cn3)c2F)c1 [Compound 17, 3-{[3-(5-Aminopyrazin-2-yl)-6-cyclobutyl-2-fluorophenoxy]methyl}benzamide]"
4,10.2,"Nc1cnc(-c2ccc(C3CCC3)c(OCc3ccc(C(=O)O)cc3)c2F)cn1 [Compound 5, 4-{[3-(5-Aminopyrazin-2-yl)-6-cyclobutyl-2-fluorophenoxy]methyl}benzoic acid]"
5,7.4,"CS(=O)(=O)c1ccc(COc2c(C3CCC3)ccc(-c3cnc(N)cn3)c2F)cc1 [Compound 7, 5-(4-Cyclobutyl-2-fluoro-3-{[4-(methylsulfonyl)benzyl]oxy}phenyl)pyrazin-2-amine]"
6,6.9,"Nc1cnc(-c2ccc(C3CCC3)c(OCc3ccccc3C(=O)O)c2F)cn1 [Example 46, 2-{[3-(5-Aminopyrazin-2-yl)-6-cyclobutyl-2-fluorophenoxy]methyl}benzoic acid]"
7,6.4,"CNS(=O)(=O)c1ccc(COc2c(C3CCC3)ccc(-c3cnc(N)cn3)c2F)cc1 [Compound 27, 4-{[3-(5-Aminopyrazin-2-yl)-6-cyclobutyl-2-fluorophenoxy]methyl}-N-methylbenzenesulfonamide]"
8,5.8,"Nc1cnc(-c2ccc(C3CCC3)c(OCc3cccc(C(=O)O)c3)c2F)cn1 [Compound 4, 3-{[3-(5-Aminopyrazin-2-yl)-6-cyclobutyl-2-fluorophenoxy]methyl}benzoic acid]"
9,3.8,"NC(=O)c1ccccc1COc1c(C2CCC2)ccc(-c2cnc(N)cn2)c1F [Compound 19, 2-{[3-(5-Aminopyrazin-2-yl)-6-cyclobutyl-2-fluorophenoxy]methyl}benzamide]"
10,3.7,"Nc1cnc(-c2ccc(C3CCC3)c(OCc3ccc(CC(=O)O)cc3)c2F)cn1 [Compound 23, (4-{[3-(5-Aminopyrazin-2-yl)-6-cyclobutyl-2-fluorophenoxy]methyl}phenyl)acetic acid]"
